Among the data in ChEMBL document CHEMBL1909046, “DrugMatrix in vitro pharmacology data” are IC50 and Ki values, retold here.

Test [1] deals with C-C chemokine receptor type 5 (Homo sapiens, UniProt P51681). It counts as cell membranes, HEK293, Membrane. To be noted: hek293.
Test [2] has as its target C-C chemokine receptor type 2 (Homo sapiens, UniProt P41597). It counts as cell membranes, CHO-K1, Membrane. To be noted: cho-k1. Also: in other assays of this panel Not Active means under 50% inhibition at 10 µM.
Test [3] in a line: DRUGMATRIX: GABAA, Flunitrazepam, Central radioligand binding (ligand: [3H] Flunitrazepam). It counts as cell membranes, Rattus norvegicus, Wistar, Brain, Membrane. As to conditions: Not Active = under 50% inhibition at 10 µM.
A short description of test [4]: DRUGMATRIX: Leukotriene, BLT (LTB4) radioligand binding (ligand: [3H]LTB4). It counts as cell membranes, Membrane. As to conditions: u-937; Not Active = under 50% inhibition at 10 µM.
Test [5] has as its target Beta-1 adrenergic receptor (Homo sapiens, UniProt P08588). Briefly: DRUGMATRIX: Adrenergic beta1 radioligand binding (ligand: [125I] Cyanopindolol). It counts as cell membranes, CHO-K1, Membrane. As to conditions: cho-k1; Not Active = under 50% inhibition at 10 µM.

Chain of C-C chemokine receptor type 2 (P41597 whole entry): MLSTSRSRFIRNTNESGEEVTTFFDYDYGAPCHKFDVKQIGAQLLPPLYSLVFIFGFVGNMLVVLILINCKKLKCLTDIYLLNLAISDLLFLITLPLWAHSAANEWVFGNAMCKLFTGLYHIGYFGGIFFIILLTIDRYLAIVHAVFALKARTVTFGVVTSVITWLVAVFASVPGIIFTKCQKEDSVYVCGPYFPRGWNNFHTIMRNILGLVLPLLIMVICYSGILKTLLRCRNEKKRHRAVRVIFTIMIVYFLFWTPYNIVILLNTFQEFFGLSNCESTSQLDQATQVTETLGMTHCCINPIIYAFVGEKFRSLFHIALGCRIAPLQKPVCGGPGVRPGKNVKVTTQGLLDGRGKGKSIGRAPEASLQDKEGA
Chain of Beta-1 adrenergic receptor (P08588 whole entry): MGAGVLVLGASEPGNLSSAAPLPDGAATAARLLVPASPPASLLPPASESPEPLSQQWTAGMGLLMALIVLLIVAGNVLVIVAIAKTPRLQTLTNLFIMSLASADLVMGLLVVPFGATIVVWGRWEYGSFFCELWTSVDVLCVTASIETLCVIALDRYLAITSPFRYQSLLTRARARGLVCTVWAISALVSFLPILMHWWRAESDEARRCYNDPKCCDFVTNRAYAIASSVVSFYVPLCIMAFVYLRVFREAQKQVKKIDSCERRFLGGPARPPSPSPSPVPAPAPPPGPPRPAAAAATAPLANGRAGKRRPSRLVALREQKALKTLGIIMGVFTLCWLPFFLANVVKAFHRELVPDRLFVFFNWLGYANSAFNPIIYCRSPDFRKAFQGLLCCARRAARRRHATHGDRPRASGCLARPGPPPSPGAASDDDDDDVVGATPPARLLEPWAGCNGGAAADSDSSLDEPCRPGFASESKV
Chain of C-C chemokine receptor type 5 (P51681 whole entry): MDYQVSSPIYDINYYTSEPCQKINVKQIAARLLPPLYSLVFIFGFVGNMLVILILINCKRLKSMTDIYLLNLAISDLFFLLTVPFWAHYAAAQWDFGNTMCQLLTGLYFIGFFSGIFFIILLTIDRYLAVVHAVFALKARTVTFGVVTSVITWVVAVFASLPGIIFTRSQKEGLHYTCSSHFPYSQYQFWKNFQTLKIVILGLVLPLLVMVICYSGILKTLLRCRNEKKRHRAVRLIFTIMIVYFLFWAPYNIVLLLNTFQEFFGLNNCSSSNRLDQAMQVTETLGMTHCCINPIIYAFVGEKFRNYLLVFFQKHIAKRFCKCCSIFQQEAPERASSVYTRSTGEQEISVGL

By IC50 is commonly meant the concentration needed to halve the response being measured. In general, Ki refers to a dissociation constant, usually derived from enzyme kinetics or from competition with a known ligand. As for `Cc1ccc(Cl)c(Nc2ccccc2C(=O)O)c1Cl` [MECLOFENAMIC ACID], the IC50 result in test [1], in test [2], in test [3], in test [4] and in test [5] was “Not Active” throughout. In addition, the Ki result in test [3] and in test [4] was “Not Active” each time.
Take `CCOC(=O)C1=C(C)NC(C)=C(C(=O)OCC)C1c1ccccc1/C=C/C(=O)OC(C)(C)C` [LACIDIPINE]: the IC50 entry in test [1], in test [2], in test [3], in test [4] and in test [5] was “Not Active” throughout. In addition, the Ki entry in test [3] and in test [4] was “Not Active” in each case.
For the molecule `O=C(c1ccccc1)c1ccc2n1CCC2C(=O)O` (stereo not given) [KETOROLAC], the IC50 result in test [1], in test [2], in test [3], in test [4] and in test [5] was “Not Active” throughout. The Ki result in test [3] and in test [4] was “Not Active” in each case.
As to `CCN(CC)N=O` [N-NITROSODIETHYLAMINE], the IC50 result in test [1], in test [2], in test [3], in test [4] and in test [5] was “Not Active” each time. The Ki result in test [3] and in test [4] was “Not Active” each time.
For `CO[C@@]12[C@H](COC(N)=O)C3=C(C(=O)C(C)=C(N)C3=O)N1C[C@@H]1N[C@@H]12` [MITOMYCIN], the IC50 entry in test [1], in test [2], in test [3], in test [4] and in test [5] was “Not Active” throughout. The Ki result in test [3] and in test [4] was “Not Active” throughout.
As for `Cc1ccc(S(=O)(=O)NC(=O)NN2CCCCCC2)cc1` [TOLAZAMIDE], the IC50 entry in test [1], in test [2], in test [3], in test [4] and in test [5] was “Not Active” each time. The Ki result in test [3] and in test [4] was “Not Active” each time.
In the case of `CCC(C)(C)C(=O)O[C@H]1C[C@@H](C)C=C2C=C[C@H](C)[C@H](CC[C@@H]3C[C@@H](O)CC(=O)O3)[C@H]21` [SIMVASTATIN], the IC50 result in test [1], in test [2], in test [3], in test [4] and in test [5] was “Not Active” throughout. Moreover, the Ki result in test [3] and in test [4] was “Not Active” in each case.
For the molecule LEAD(IV) ACETATE, the IC50 entry in test [1], in test [2], in test [3], in test [4] and in test [5] was “Not Active” throughout. For the same molecule, the Ki result in test [1], in test [2], in test [3], in test [4] and in test [5] was “Not Active” each time.
Take `CCN1CCCC1CNC(=O)c1cc(S(N)(=O)=O)ccc1OC` (stereo not given) [SULPIRIDE]: the IC50 result in test [1], in test [2], in test [3], in test [4] and in test [5] was “Not Active” throughout. In addition, the Ki result in test [3] and in test [4] was “Not Active” each time.
Regarding `CC[C@H](C)C(=O)O[C@H]1CCC=C2C=C[C@H](C)[C@H](CC[C@@H]3C[C@@H](O)CC(=O)O3)[C@H]21` [MEVASTATIN], the IC50 result in test [1], in test [2], in test [3], in test [4] and in test [5] was “Not Active” throughout. Besides, the Ki entry in test [3] and in test [4] was “Not Active” each time.
As to `CN1C[C@H](CNC(=O)OCc2ccccc2)C[C@@H]2c3cccc4c3c(cn4C)C[C@H]21` [METERGOLINE], the half-maximal inhibitory concentration (IC50) entry in test [1], in test [2], in test [3], in test [4] and in test [5] was “Not Active” throughout. For the same molecule, the Ki result in test [3] and in test [4] was “Not Active” in each case.
For `Oc1ccc(/C=C/c2cc(O)cc(O)c2)cc1` [RESVERATROL], the IC50 entry in test [1], in test [2], in test [3], in test [4] and in test [5] was “Not Active” throughout. Moreover, the inhibition constant Ki entry in test [3] and in test [4] was “Not Active” in each case.
For `CC1=C(/C=C/C(C)=C/C=C/C(C)=C/C(=O)O)C(C)(C)CCC1` [TRETINOIN], the IC50 entry in test [1], in test [2], in test [3], in test [4] and in test [5] was “Not Active” in each case. Further, the Ki result in test [3] and in test [4] was “Not Active” in each case.
As for `CC[C@@]1(O)C(=O)OCc2c1cc1n(c2=O)Cc2cc3c(CN(C)C)c(O)ccc3nc2-1` [TOPOTECAN], the IC50 result in test [1], in test [2], in test [3], in test [4] and in test [5] was “Not Active” in each case. Also, the Ki result in test [3] and in test [4] was “Not Active” in each case.
For `O=C(OC[C@H]1O[C@@H](OC(=O)c2cc(O)c(O)c(OC(=O)c3cc(O)c(O)c(O)c3)c2)[C@H](OC(=O)c2cc(O)c(O)c(OC(=O)c3cc(O)c(O)c(O)c3)c2)[C@@H](OC(=O)c2cc(O)c(O)c(OC(=O)c3cc(O)c(O)c(O)c3)c2)[C@@H]1OC(=O)c1cc(O)c(O)c(OC(=O)c2cc(O)c(O)c(O)c2)c1)c1cc(O)c(O)c(OC(=O)c2cc(O)c(O)c(O)c2)c1` [TANNIC ACID], the IC50 entry in test [1], in test [2], in test [3], in test [4] and in test [5] was “Not Active” each time. The Ki entry in test [3] and in test [4] was “Not Active” each time.
As to `CC(Cl)(Cl)Cl` [TRICHLOROETHANE], the IC50 result in test [1], in test [2], in test [3], in test [4] and in test [5] was “Not Active” throughout. In addition, the Ki entry in test [3] and in test [4] was “Not Active” each time.
For `C=CCc1ccc2c(c1)OCO2` [SAFROLE], the IC50 entry in test [1], in test [2], in test [3], in test [4] and in test [5] was “Not Active” in each case. In addition, the Ki result in test [3] and in test [4] was “Not Active” in each case.
In the case of `O=C1CC[C@@]2(O)[C@H]3Cc4ccc(O)c5c4[C@@]2(CCN3CC2CC2)[C@H]1O5` [NALTREXONE], the IC50 result in test [1], in test [2], in test [3], in test [4] and in test [5] was “Not Active” throughout. Also, the Ki result in test [3] and in test [4] was “Not Active” throughout.
With `CN1C(=O)OC(C)(C)C1=O` [TRIMETHADIONE], the IC50 result in test [1], in test [2], in test [3], in test [4] and in test [5] was “Not Active” each time. Also, the Ki result in test [3] and in test [4] was “Not Active” throughout.
Consider `CC(O)C(=O)O` (stereo not given) [LACTIC ACID], for which the IC50 result in test [1], in test [2], in test [3], in test [4] and in test [5] was “Not Active” throughout. The Ki result in test [3] and in test [4] was “Not Active” in each case.
For `CS(=O)(=O)c1ccc(C2=C(c3ccccc3)C(=O)OC2)cc1` [ROFECOXIB], the IC50 entry in test [1], in test [2], in test [3], in test [4] and in test [5] was “Not Active” throughout. Also, the Ki result in test [3] and in test [4] was “Not Active” throughout.
For `C[N+]1(C)[C@@H]2C[C@@H](OC(=O)[C@H](CO)c3ccccc3)C[C@H]1[C@@H]1O[C@@H]12.[Br-]` [METHSCOPOLAMINE BROMIDE], the IC50 entry in test [1], in test [2], in test [3], in test [4] and in test [5] was “Not Active” throughout. The Ki result in test [3] and in test [4] was “Not Active” each time.
Turning to `Cc1nnc(NS(=O)(=O)c2ccc(N)cc2)s1` [SULFAMETHIZOLE], the half-maximal inhibitory concentration (IC50) result in test [1], in test [2], in test [3], in test [4] and in test [5] was “Not Active” throughout. Also, the Ki result in test [3] and in test [4] was “Not Active” in each case.
As for `CC(=O)O[C@]1(C(C)=O)CC[C@H]2[C@@H]3C[C@H](C)C4=CC(=O)CC[C@]4(C)[C@H]3CC[C@@]21C` [MEDROXYPROGESTERONE ACETATE], the IC50 entry was “Not Active” in test [1]; “Not Active” in test [2]; 7.74 µM in test [3] (read-out: IC50); “Not Active” in test [4]; “Not Active” in test [5]. For the same molecule, the Ki in test [3] (read-out: Ki) was 6.3 µM; in test [4], “Not Active”.
As for `CC1(C)[C@H](C(=O)O)N2C(=O)C[C@H]2S1(=O)=O` [SULBACTAM], the IC50 result in test [1], in test [2], in test [3], in test [4] and in test [5] was “Not Active” each time. Moreover, the inhibition constant (Ki) entry in test [3] and in test [4] was “Not Active” in each case.
In the case of `O=C(O)c1cc(/N=N/c2ccc(S(=O)(=O)Nc3ccccn3)cc2)ccc1O` [SULFASALAZINE], the IC50 result in test [1], in test [2], in test [3], in test [4] and in test [5] was “Not Active” throughout. Also, the inhibition constant Ki result in test [3] and in test [4] was “Not Active” in each case.
